Data published in PMC1790958, “Bioassay-Guided Evolution of Glycosylated Macrolide Antibiotics in Escherichia coli” (PLoS Biology, 2007).

Tests used:
EryBV = EryBV (Saccharopolyspora erythraea, UniProt O33939); conditions: BL21(DE3)/pHL71/pHL50, 100 mg/l 6dEB, 10 μM IPTG, 20 °C, 72 h; TDP-L-mycarose made in the cell
DesIV = target: T1, DesIV (Streptomyces venezuelae, UniProt Q9ZGH3); assay: HPLC, UV […] nm; type: biochemical; conditions: 1 mM TDP-D-glucose, 1 mM NAD+, 8 μM DesIV, 100 mM phosphate pH 8.0, 1 mM DTT, 5% glycerol, 25 °C
T1 construct: recombinant from E. coli (pET28/pET21-type vectors)
T1 sequence (Q9ZGH3 1-337): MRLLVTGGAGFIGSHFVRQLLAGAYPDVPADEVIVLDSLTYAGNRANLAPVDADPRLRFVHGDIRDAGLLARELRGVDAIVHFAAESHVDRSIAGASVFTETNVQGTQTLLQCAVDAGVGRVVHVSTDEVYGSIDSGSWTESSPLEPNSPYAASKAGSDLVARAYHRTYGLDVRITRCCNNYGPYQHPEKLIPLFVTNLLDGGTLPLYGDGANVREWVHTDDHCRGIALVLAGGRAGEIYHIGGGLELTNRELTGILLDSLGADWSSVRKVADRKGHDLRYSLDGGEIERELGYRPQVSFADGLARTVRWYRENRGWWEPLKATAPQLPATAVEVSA

EryCII/EryCIII = EryCII/EryCIII (Saccharopolyspora erythraea, UniProt A4F7P3); conditions: BL21(DE3)/pHL50, 100 mg/l αMEB, 10 μM IPTG, 20 °C, 72 h; TDP-D-desosamine made in the cell

| SMILES | HPLC, UV 264 nm (DesIV) | further results |
| --- | --- | --- |
| CC[C@H]1OC(=O)[C@H](C)[C@@H](O)[C@H](C)[C@@H](O)[C@@H](C)C[C@@H](C)C(=O)[C@H](C)[C@@H](O)[C@H]1C [6dEB] |  | whole-cell conversion to 6-deoxyerythromycin D (with EryCII/EryCIII), B. subtili (EryBV): EryBV, which ordinarily transfers the mycarose sugar onto erythronolide B, is also capable of recognizing 6dEB |
| Cc1cn([C@H]2C[C@H](O)[C@@H](COP(=O)(O)OP(=O)(O)O[C@H]3O[C@H](CO)[C@@H](O)[C@H](O)[C@H]3O)O2)c(=O)[nH]c1=O [A, TDP-D-glucose] | Conversion of TDP-Glucose to TDP-4-Keto-6-Deoxy-Glucose by DesIV |  |
| Cc1cn([C@H]2C[C@H](O)[C@@H](COP(=O)(O)OP(=O)(O)O[C@H]3O[C@H](C)C(=O)[C@H](O)[C@H]3O)O2)c(=O)[nH]c1=O [B, TDP-4-keto-6-deoxy-D-glucose] | Conversion of TDP-Glucose to TDP-4-Keto-6-Deoxy-Glucose by DesIV |  |
| CC[C@H]1OC(=O)[C@H](C)[C@@H](O[C@H]2C[C@@](C)(O)[C@@H](O)[C@H](C)O2)[C@H](C)[C@@H](O)[C@](C)(O)C[C@@H](C)C(=O)[C@H](C)[C@@H](O)[C@H]1C [L, αMEB] |  | % conversion (EryCII/EryCIII): ~ 25% |
